Source: a melting point compilation (Tetko et al.)

SMILES | melting point [°C]
COC(=O)c1cccc(NC(=O)CC(C)=O)c1 | 75 to 77
Nc1n[nH]c(=O)[nH]c1=O | 334 to 336
Nc1cc(C(F)(F)F)ccc1C(=O)O | 175 to 176
Cc1nn(C)c(C)c1NC(=O)C(C)Cl (centres undefined) | 120 to 122
CNC(=O)c1ccc(C)c(N)c1 | 167 to 169
Ic1nnc[nH]1 | 196 to 198
CS(=O)(=O)c1cc(Br)cc(C(=O)O)c1F | 209 to 211
CCC(C)NC(=O)c1ccc(N)cc1 (centres undefined) | 101 to 104
O=C1CC2CCCC(C1)N2Cc1ccccc1 | 66 to 68
COc1cc(CCl)ccc1SC | 78 to 80
Fc1ccc(CCNC2=NCCS2)cc1 | 106 to 108
COC(=O)C(Cc1c[nH]cn1)NC(C)=O (centres undefined) | 116 to 118
O=C(CCl)N1CCc2cc(S(=O)(=O)N3CCCCC3)ccc21 | 185 to 187
CC(O)Cc1cc(F)ccc1Br (centres undefined) | 56 to 58
CC1CNCC(C)N1C(=O)OC(C)(C)C (centres undefined) | 61 to 63
Cc1ccccc1-n1c(S)nc2sc3c(c2c1=O)CCC(C)C3 (centres undefined) | 230 to 232
Cc1nn(C)c(=O)c(C(=O)N2CSCC2C(=O)O)c1C (centres undefined) | 209 to 211
CCOC(=O)NC1CCC(O)CC1 (centres undefined) | 132 to 134
CCC1(C(C)C)NC(=O)NC1=O (centres undefined) | 164 to 166
O=Cc1cc[nH]n1 | 139 to 141
Cc1cc(C(=O)O)c(C)n1C(C)c1ccccc1 (centres undefined) | 135 to 137

SMILES | melting point [°C]
CCCCN(C(=O)CCl)c1c(N)n(CCC)c(=O)[nH]c1=O | 229 to 231
CCn1cc(C(F)(F)C(=O)O)cn1 | 99 to 101
CC(C)c1nnc(S)[nH]1 | 156 to 158
COc1ccc(C(=O)N2CCCC2)cc1N | 137 to 139
CCOC(=O)c1sc(N)c(C(=O)OC(C)(C)C)c1C | 90 to 92
CCc1ncncc1C(=O)O | 155 to 157
CC(NC(N)=S)c1ccccc1 (centres undefined) | 94 to 96
O=C(O)CCCc1ccc(Br)s1 | 54 to 58
CN(C)C(=O)COc1cccc(C(=O)O)c1 | 193 to 195
NC(=S)Nc1ccc(OC(F)(F)F)cc1 | 136 to 138
O=C(O)c1ccc2ncc(I)n2c1 | 254 to 256
CC(C)(C)OC(=O)N1CCC(OC(=O)c2ccccc2N)CC1 | 120 to 122
N#CC1(N)CCSC1 (centres undefined) | 54 to 56
CC1(C)NC(=O)N(CC#N)C1=O | 155 to 157
CCN(CC)S(=O)(=O)c1cccc(NC(=O)CCl)c1 | 82 to 84
O=C(CCCl)Nc1ccccc1Br | 104 to 106
COc1ccccc1NC(=O)Cc1noc(CCl)n1 | 95 to 97
O=C(NCCCc1ccccc1)c1ccccc1O | 77 to 79
COC(=O)c1ccc2c(c1)CCCN2 | 71 to 73
NNC(=S)NC1CC1 | 100 to 102
CC(C)(C)OC(=O)Nc1cccc(C#N)c1 | 127 to 129

SMILES | melting point [°C]
Nc1cnc(-c2ccccc2)nc1 | 81 to 83
Cc1ccc(N2CC(C(=O)O)CCC2=O)cc1C (centres undefined) | 184 to 186
COC(=O)Nc1cccc(N)c1 | 62 to 64
COc1cc(C(C)=O)ccc1OCCCC(=O)O | 163 to 165
Nc1ccc(CC(=O)N2CCN(c3ccccc3)CC2)cc1 | 201 to 203
Cc1cc(F)cc(C(=O)O)c1N | 191 to 193
Nc1cccc(C(=O)N2CCCCC2CCO)c1 (centres undefined) | 129 to 131
CCCNC(=O)CN(C)C(=O)CCl | 212 to 217
O=C(O)c1ccnc(NC2CCCC2)c1 | 296 to 298
COC(=O)C1CCN(S(=O)(=O)Cl)CC1 | 66 to 68
Nc1nnc(-c2ccco2)s1 | 250 to 252
CCOC(=O)/C(C#N)=C\Nc1ccc(CC)cc1 | 97 to 99
CC(Cl)C(=O)NC(=O)NC1CC1 (centres undefined) | 88 to 90
CC(C)(C)NC(=O)NCCCl | 104 to 106
O=C(O)c1ccc(S(=O)(=O)NC2CCS(=O)(=O)C2)cc1 (centres undefined) | 303 to 305
CC(CCOc1ccccc1)C(=O)O (centres undefined) | 76 to 78
O=C(O)CCN1C(=O)C2CCCCC2C1=O (centres undefined) | 81 to 83
CCOC(=O)c1[nH]cnc1N | 129 to 131
O=C(O)CC1C=CS(=O)(=O)C1 (centres undefined) | 81 to 83
COc1cccc(C(=O)c2c(N)sc3c2CCC3)c1 | 127 to 129
O=C(NCCO)c1ccccc1 | 60 to 62

SMILES | melting point [°C]
NS(=O)(=O)N1CCCC1 | 96 to 98
COC(=O)c1ccc(=O)[nH]n1 | 188 to 190
O=C(O)c1ccccc1N1CCCC1=O | 197 to 199
COCCc1nnc(S)n1N | 118 to 120
c1cc2c(cn1)NCCCN2 | 121 to 123
CN1CCOC(C(=O)c2ccc(Cl)cc2)C1 (centres undefined) | 59 to 61
COc1ccccc1C=NO | 86 to 88
[N-]=[N+]=Nc1ccc(Br)cc1Cl | 60 to 62
Cc1nc(-c2cc3c(s2)CCNC3)cs1 | 111 to 113
O=C(Nc1cccc(C(=O)O)c1)NC1CC1 | 236 to 238
N#Cc1ccc(-n2cncn2)nc1 | 203 to 205
CCCC(CN)C(=O)O (centres undefined) | 219 to 221
CCCNC(=O)c1cccc(C(=O)O)c1 | 229 to 231
Nc1nonc1C(=O)N1CCCC1 | 192 to 194
COc1ccc(S(=O)(=O)N2CCCCCC2)cc1NC(=O)CCl | 105 to 107
O=C(CCl)NCC1CCCc2ccccc21 (centres undefined) | 114 to 116
COC(=O)c1ccc(Br)s1 | 60 to 62
O=C(O)c1ccc(N2CCOCC2)c(F)c1 | 220 to 222
ClCc1cc(Cl)c2c(c1)OCCCO2 | 59 to 63
O=C(Nc1ccccc1F)C1CSCN1 (centres undefined) | 97 to 99

Results, then the compound that gave them:

melting point [°C] | SMILES
204 to 206 | O=C(O)c1ccc(-c2ccc3c(c2)OCCO3)s1
123 to 125 | CC(=O)Nc1cccc(I)c1
80 to 82 | N#CC(N)c1ccc(Cl)cc1Cl (centres undefined)
230 to 232 | CS(=O)(=O)Nc1cccc(C(=O)O)c1
119 to 121 | CCOc1cc(Cl)ccc1C(=O)O
267 to 269 | Cc1cc(C(=O)O)c2ccc(F)cc2n1
158 to 160 | O=C(O)c1oc2ccccc2c1CSc1ccc(Cl)cc1
149 to 151 | O=[N+]([O-])c1ccc(Cl)c(S(=O)(=O)N2CCOCC2)c1
186 to 188 | CC(C)S(=O)(=O)c1ccc(C(=O)O)cc1
99 to 101 | O=C1COc2cc(OCc3ccccc3)ccc21
81 to 85 | N#Cc1cc(Cl)ccn1
201 to 203 | CC(c1ccccc1)n1c(S)nnc1-c1ccccc1 (centres undefined)
113 to 115 | O=Cc1cnc(-c2cccs2)s1
192 to 194 | Cc1noc(C)c1CSc1ccccc1C(=O)O
197 to 199 | N#Cc1cccnc1NCc1cccc(C(=O)O)c1
154 to 156 | CCOc1ccc(N)cc1S(N)(=O)=O
281 to 283 | O=C(O)c1cc2c(Cl)c(Cl)ccc2[nH]1
233 to 235 | Nc1cc(Cl)c(NC(=O)c2ccncc2)c(Cl)c1
54 to 56 | NC1CCCc2nc(-c3ccc(F)cc3)sc21 (centres undefined)
192 to 194 | Cc1csc(-c2cccc(C(=O)O)c2)n1
187 to 189 | CCCS(=O)(=O)Nc1ccc(C(=O)O)cc1

melting point [°C] | SMILES
203 to 205 | O=C(O)c1nn(-c2ccc(F)cc2F)cc1O
91 to 93 | O=C(CCl)Nc1ccccc1[N+](=O)[O-]
156 to 158 | CC(=O)c1c[nH]cc1-c1ccccc1
154 to 156 | NC(=O)COc1ccc(O)cc1
135 to 137 | NC(=NO)c1ccc(COc2ccccc2F)cc1
239 to 241 | O=C1CCc2cc(O)ccc2N1
128 to 130 | Cc1cccc(NC(=O)C(C)Cl)c1 (centres undefined)
118 to 120 | O=Cc1c(O)ccc([N+](=O)[O-])c1Cl
109 to 111 | O=C1NC(=O)C(F)(F)c2ccccc21
193 to 195 | O=C1CCC(c2ccc(F)cc2)=NN1
128 to 130 | Cc1ccc(-c2nc3c(s2)C(=O)CCC3)cc1
159 to 161 | Cc1cc(NS(=O)(=O)c2cccc(C#N)c2)no1
145 to 147 | COc1ccc(S(N)(=O)=O)cc1N
103 to 105 | O=CC1=Cc2cc(Br)ccc2OC1
329 to 331 | O=S(=O)(O)c1nc2ccc(Cl)cc2[nH]1
238 to 240 | O=C(O)c1cn(-c2ccccc2)nc1-c1cccnc1
142 to 144 | Cc1nn(-c2ccc(Br)cc2)c(C)c1C=O
249 to 251 | O=C(O)c1cncc2ccccc12
242 to 244 | O=C(O)c1ccc2ncoc2c1
187 to 189 | O=c1[nH]c(S)nn1-c1ccccc1
74 to 76 | Cc1nc(N)sc1Cc1cccc(Cl)c1

melting point [°C] | SMILES
224 to 226 | Nc1nncc(-c2cccc(F)c2)n1
200 to 202 | CC1(c2cccc(Cl)c2)NC(=O)NC1=O (centres undefined)
312 to 314 | O=C(O)c1cccc(-n2[nH]c(=O)ccc2=O)c1
215 to 217 | Cc1ccc(-c2nc(C)c(C(=O)O)s2)o1
135 to 137 | NNC(=O)c1ccc(COc2cccc3cccnc23)cc1
106 to 108 | COc1ccc(N)cc1OCc1ccc2ccccc2n1
156 to 158 | CC(C)(C)c1ccc(Oc2ccc(C=O)cc2[N+](=O)[O-])cc1
294 to 296 | O=C(O)c1c2c(nc3ccccc13)C(=Cc1cccc(Cl)c1Cl)CCC2
180 to 182 | O=S(=O)(c1ccc(F)cc1)N1CCCNCC1
79 to 81 | O=Cc1cc(Cl)ccc1OCc1cccnc1
92 to 94 | O=Cc1ccc(-c2ccc(Cl)cc2[N+](=O)[O-])o1
161 to 163 | CCCCN(c1ccccc1)S(=O)(=O)c1cccc(C(=O)O)c1
268 to 270 | Cc1ccc(C(=O)O)cc1NC(=O)c1ccccc1F
114 to 116 | Cc1oc(C(=O)O)cc1S(=O)(=O)Cl
144 to 146 | Cc1sc2nc(-c3cccnc3)nc(Cl)c2c1-c1ccccc1
109 to 111 | CC(C)CNC(=O)c1cc(N)ccc1Cl
139 to 141 | NNS(=O)(=O)Cc1ccc([N+](=O)[O-])cc1
112 to 114 | O=S(=O)(c1ccc(F)cc1)N1CCNCC1
123 to 125 | Nc1ccc(Cl)c(S(=O)(=O)Nc2ccc(Cl)cc2)c1
